Measurements: publication PMC11327196, “A phase 1 study to assess the absolute bioavailability, mass balance, pharmacokinetics, metabolism, and excretion of [^14C]-mobocertinib, an oral inhibitor of EGFR exon 20 insertion mutations, in healthy participants” (Investigational New Drugs, 2024)

What was measured:
[1] = Period 2: urine PK (renal clearance, urinary recovery); assay type: in vivo, human
Procedure: After a washout of 8–9 days, participants returned to the clinic for Day − 1 of Period 2. On Day 1 of Period 2, after a fast of ≥ 10 h, participants received a single nominal dose of 160 mg (~ 100 µCi; whole body effective dose of 5.3 mrem for a 70-kg human) [^14C]-mobocertinib as a 70 mL oral solution. The actual doses administered ranged from 161 to 163 mg (92.4 to 93.9 µCi). Participants stayed in the clinic from Day − 1 until a discharge criterion (≥ 80% of the total administered radioactive dose was recovered in urine and feces or excretion of radioactivity in urine and feces combined had declined to ≤ 1% of the total administered dose per day for ≥ 2 consecutive intervals) was met, or up to 10 days postdose. To measure the total radioactivity and concentrations of mobocertinib, AP32960, and AP32914 in whole blood and plasma, 4 blood samples were collected predose, and at 0.5, 1, 2, 3, 4, 5, 6, 8, 12, 24, 36, 48, 72, 96, 120, 144, 168, 192, 216, and 240 h postdose; a fifth blood sample was collected for plasma metabolite profiling at predose and 1, 2, 4, 6, 12, 24, 48, 72, 96, 120, and 168 h postdose. Feces and urine were collected predose (feces within 48 h and urine within 24 h prior to dosing), 0–24 h (urine from 0–12 and 12–24 h), and then at 24-hour intervals up to 240 h postdose or until a discharge criterion was met. […] These 2 participants continued with at-home fecal sample collections. […]
Plasma, whole blood, and urine samples were assayed for mobocertinib, AP32960, and AP32914 concentrations using liquid chromatography-tandem mass spectrometry (Q2 Solutions, Ithaca, New York, USA). […] Urine and fecal samples were assayed for total radioactivity following the IV dose of [^14C]-mobocertinib in Period 1, and whole blood, plasma, urine, and fecal samples were assayed for total radioactivity following the oral dose of [^14C]-mobocertinib in Period 2 using liquid scintillation counting (LSC; Celerion, Lincoln, Nebraska, USA; LLOQs: Period 1 urine: 0.115–0.118 ng eq/g, feces: 0.720–0.759 ng eq/g; Period 2 whole blood: 87.3–112 ng eq/g, plasma: 116–132 ng eq/mL, urine: 37.8–46.8 ng eq/g, feces: 110–336 ng eq/g across participants). Urine and fecal samples collected in Period 1 that had total radioactivity concentration equivalents below the LLOQ of the Celerion LSC assay were sent to Pharmaron for measurement by AMS (LLOQ: urine: 0.0000253–0.00111 ng eq/g; feces: 0.000404–0.0278 ng eq/g across participants). […]
PK parameters for analytes in urine and feces were calculated using SAS Version 9.4 and included the cumulative amounts and percentages of the administered radioactive dose excreted as [^14C]-mobocertinib, [^14C]-AP32960, and [^14C]-AP32914 in urine and feces following IV dosing in Period 1 and oral dosing in Period 2. […]

[2] = Period 2: mass balance (total radioactivity in urine and feces); assay type: in vivo, human
Procedure: (§1) After a washout of 8–9 days, participants returned to the clinic for Day − 1 of Period 2. On Day 1 of Period 2, after a fast of ≥ 10 h, participants received a single nominal dose of 160 mg (~ 100 µCi; whole body effective dose of 5.3 mrem for a 70-kg human) [^14C]-mobocertinib as a 70 mL oral solution. The actual doses administered ranged from 161 to 163 mg (92.4 to 93.9 µCi). Participants stayed in the clinic from Day − 1 until a discharge criterion (≥ 80% of the total administered radioactive dose was recovered in urine and feces or excretion of radioactivity in urine and feces combined had declined to ≤ 1% of the total administered dose per day for ≥ 2 consecutive intervals) was met, or up to 10 days postdose. To measure the total radioactivity and concentrations of mobocertinib, AP32960, and AP32914 in whole blood and plasma, 4 blood samples were collected predose, and at 0.5, 1, 2, 3, 4, 5, 6, 8, 12, 24, 36, 48, 72, 96, 120, 144, 168, 192, 216, and 240 h postdose; a fifth blood sample was collected for plasma metabolite profiling at predose and 1, 2, 4, 6, 12, 24, 48, 72, 96, 120, and 168 h postdose. Feces and urine were collected predose (feces within 48 h and urine within 24 h prior to dosing), 0–24 h (urine from 0–12 and 12–24 h), and then at 24-hour intervals up to 240 h postdose or until a discharge criterion was met. […] These 2 participants continued with at-home fecal sample collections. One participant provided fecal samples until Day 13 (264–288 h interval) and one participant provided fecal samples until Day 19 (408–432 h interval), after which they met a discharge criterion.
(§2) Plasma, whole blood, and urine samples were assayed for mobocertinib, AP32960, and AP32914 concentrations using liquid chromatography-tandem mass spectrometry (Q2 Solutions, Ithaca, New York, USA). The analytical range for each analyte was 0.250 to 500 ng/mL in whole blood and plasma, and 1.00 to 1000 ng/mL in urine. […] Urine and fecal samples were assayed for total radioactivity following the IV dose of [^14C]-mobocertinib in Period 1, and whole blood, plasma, urine, and fecal samples were assayed for total radioactivity following the oral dose of [^14C]-mobocertinib in Period 2 using liquid scintillation counting (LSC; Celerion, Lincoln, Nebraska, USA; LLOQs: Period 1 urine: 0.115–0.118 ng eq/g, feces: 0.720–0.759 ng eq/g; Period 2 whole blood: 87.3–112 ng eq/g, plasma: 116–132 ng eq/mL, urine: 37.8–46.8 ng eq/g, feces: 110–336 ng eq/g across participants). Urine and fecal samples collected in Period 1 that had total radioactivity concentration equivalents below the LLOQ of the Celerion LSC assay were sent to Pharmaron for measurement by AMS (LLOQ: urine: 0.0000253–0.00111 ng eq/g; feces: 0.000404–0.0278 ng eq/g across participants). The LSC and AMS assays were not cross-validated.
PK parameters for analytes in urine and feces were calculated using SAS Version 9.4 and included the cumulative amounts and percentages of the administered radioactive dose excreted as [^14C]-mobocertinib, [^14C]-AP32960, and [^14C]-AP32914 in urine and feces following IV dosing in Period 1 and oral dosing in Period 2. Renal clearance (CLR) was calculated as the cumulative amount of radiolabeled mobocertinib, AP32960, or AP32914 recovered in urine divided by the plasma AUC to the time of the last common time point at which an analyte was quantifiable in both urine and plasma for individual participants (AUCCLR) following oral dosing of [^14C]-mobocertinib in Period 2. Mass balance was defined as the percentage of total radioactivity recovered in urine and feces combined relative to the total amount of the administered radioactive dose.

[3] = parameters: method as in PMID 34145979; settings: healthy participants, cited from earlier work
[4] = Period 2 human ADME study: plasma PK after oral solution [14C]-mobocertinib; assay type: in vivo
Procedure: This was a two-period, open-label, single-dose phase 1 study (NCT03811834) conducted at one clinical site (Celerion, Lincoln, Nebraska, USA) in healthy male participants. The primary objective of Period 1 was to determine the absolute bioavailability of mobocertinib following a single oral dose of 160 mg mobocertinib as capsules and a single intravenous (IV) microdose of 50 µg (~ 2 µCi) [^14C]-mobocertinib. The primary objectives of Period 2 were to (1) assess the cumulative excretion of total radioactivity in urine and feces (mass balance); (2) assess the metabolite profile of mobocertinib in plasma, urine, and feces; and (3) characterize the PK of mobocertinib, AP32960, and AP32914 in plasma, whole blood, and urine, and total radioactivity concentration equivalents in plasma and whole blood following a single oral dose of 160 mg (~ 100 µCi) [^14C]-mobocertinib as an oral solution. A sample size of 6 healthy males was selected without statistical considerations and deemed adequate to meet the study objectives. Furthermore, the sample size was limited based on clinical considerations for human ADME studies and to limit exposure to radioactivity.
as §1
as §2, with “cross-validated. […]” for “cross-validated.”

[5] = Period 2, oral solution 160 mg [14C]-mobocertinib, geometric mean (geometric CV%)
[6] = male, human, Period 2, oral solution 160 mg [14C]-mobocertinib, geometric mean (geometric CV%)
[7] = Period 2, oral solution 160 mg (~100 µCi) [14C]-mobocertinib, geometric mean

Compound: C=CC(=O)Nc1cc(Nc2ncc(C(=O)OC(C)C)c(-c3cn(C)c4ccccc34)n2)c(OC)cc1N(C)CCN(C)C [Mobocertinib]
- radioactive dose recovered in urine as mobocertinib, AP32960 and AP32914 combined ([1]; male, human, in vivo, po): 1.13%
- CL renal ([1]; male, human, in vivo, po, 160 mg): 11 mL/min
- administered radioactive dose unaccounted for ([2]; male, human, in vivo, po): Approximately 20%
- cumulative percentage of the radioactive dose recovered in feces (total radioactivity) ([2]; male, human, in vivo, po): 76.0%
- cumulative percentage of the radioactive dose recovered in urine (total radioactivity) ([2]; male, human, in vivo, po): 3.57%
- decrease of combined molar AUC of mobocertinib and its active metabolites ([3]; coadministration of strong CYP3A inducer rifampin): 95%
- increase of combined molar AUC of mobocertinib and its active metabolites ([3]; coadministration of strong CYP3A inhibitor itraconazole): 527%
- t1/2z of total radioactivity ([4]; Period 2, oral solution 160 mg [14C]-mobocertinib, exceeds duration of sampling, approximate estimate, geometric mean (geometric CV%)): ~281 h
- CL/F [4, 5]: 169 (38.4) L/h
- Molar AUC∞ ratio (analyte vs. total radioactivity) [4, 5]: 0.00172 (31.1)
- tmax ([4]; Period 2, single oral solution 160 mg (~100 µCi) [14C]-mobocertinib, median (range)): 6.0 (3.0–6.0) h
- AUC(0-inf) [4, 6]: 956 ng·h/mL
- AUC(0-t) [4, 6]: 945 ng·h/mL
- Cmax [4, 6]: 51 ng/mL
- Vd/F ([4]; male, human, Period 2, oral solution 160 mg [14C]-mobocertinib, geometric mean (geometric CV%), read-out: Vz/F): 5560 L
- half-life ([4]; male, human, Period 2, oral solution 160 mg [14C]-mobocertinib, geometric mean (geometric CV%), read-out: t1/2z (converted)): 22.8 h

Compound: [^14C]-mobocertinib
- radioactive dose recovered in urine as mobocertinib, AP32960 and AP32914 combined ([1]; Period 2, oral solution 160 mg [14C]-mobocertinib): 1.13%
- total oral radioactive dose recovered in urine as analyte ([1]; Period 2, oral solution 160 mg [14C]-mobocertinib, geometric mean): 0.39%
- cumulative percentage of the radioactive dose recovered in feces (total radioactivity) [2, 7]: 76.0%
- cumulative percentage of the radioactive dose recovered in urine (total radioactivity) [2, 7]: 3.57%
- cumulative percentage of the radioactive dose recovered in urine and feces combined ([2]; Period 2, oral solution 160 mg (~100 µCi) [14C]-mobocertinib, geometric mean, 432-hour collection interval): 79.6%
